Measurements reported in patent US20110166223A1, “METHODS OF INHIBITING FGFR3 SIGNALING” (CEDARS-SINAI MEDICAL CENTER, priority 2008, published 2011).

Assays:
[1] = tested on: FGF2/FGFR3-mediated extracellular matrix loss in RCS chondrocytes; assay: [35S]sulfate labeling assay in RCS chondrocytes; assay type: cell-based, rat; conditions: FGF2 5 ng/ml, NF449 20 μM, 72 hours, FIG. 2b
Protocol: For Alcian blue staining, growing RCS cultures were treated with FGF2 (5 ng/ml) alone or in the presence of NF449 (20 μM) for 72 hours, fixed with 4% paraformaldehyde and stained for 30 minutes with Alcian blue. For quantification of the FGF2/FGFR3-mediated extracellular matrix loss, RCS chondrocytes were treated with FGF2 (5 ng/ml) and NF449 (20 μM) for 72 hours in the presence of 10 μCi/ml of [^35S]sulfate (Perkin Elmer, Boston, Mass.). Following the cultivation period, cells were harvested and the incorporated radioactivity was determined by liquid scintillation.
Apart from the growth arrest, aberrant FGFR3 signaling in chondrocytes leads to the loss of their extracellular matrix, rich in sulfated proteoglycans, due to inhibition of matrix synthesis as well as degradation of the existing matrix. The inventors therefore evaluated whether NF449 rescues the extracellular matrix loss induced by FGFR3 activation. […] Similar to previous findings, this matrix was lost after the 72-hours of FGF2 treatment. […] To further confirm this observation, cells were incubated with [^35S]sulfate for 72 hours to label the extracellular matrix and determined the effect of FGF2 and NF449 on the cell-bound radioactivity.

[2] = tested on: ERK MAP kinase phosphorylation in KMS11 and OPM2 cells; assay: FGF2-mediated ERK MAP kinase phosphorylation by western blotting in MM cell lines; assay type: cell-based; conditions: NF449 one hour before FGF2, FIG. 3a
Protocol: FIG. 3, in accordance with an embodiment herein, depicts 4,4′,4″,4′″-[carbonyl-bis[imino-5,1,3-benzenetriyl bis-{carbonylimino}]]tetrakis-{benzene-1,3-disulfonic acid} inhibits FGF2/FGFR3 signaling in MM cell lines OPM2 and KMS11. (a) KMS11 and OPM2 cells were serum-starved for 12 hours, treated with 4,4′,4″,4′″-[carbonyl-bis[imino-5,1,3-benzenetriyl bis-{carbonylimino}]]tetrakis-{benzene-1,3-disulfonic acid} for one hour before the treatment with FGF2 and the levels of ERK MAP kinase phosphorylation were determined by western blotting with the P-ERK1/2(Thr^202/Tyr^204) antibody. As a loading control, the membranes were reprobed with antibody recognizing ERK regardless of its phosphorylation. […] (b) The OPM2 cells were serum starved for 12 hours, pre-treated with 4,4′,4″,4′″-[carbonyl-bis[imino-5,1,3-benzenetriyl bis-{carbonylimino}]]tetrakis-{benzene-1,3-disulfonic acid} for one hour before FGF2 treatment, and analyzed for CCL3 and CCL4 expression by real-time RT-PCR as described herein. The results are expressed as the fold difference relative to control (2^ddCt). […]
Since MM represents another area of pathological FGFR3 signaling in viva, the inventors evaluated whether NF449 inhibits FGFR3 signaling in KMS11 and OPM2 MM cell lines. […]

GSA subunit = GSA subunit (Homo sapiens, UniProt P63092); conditions: Hohenegger, et al., 1998; cited from earlier work
GSA subunit, sequence (P63092 whole entry): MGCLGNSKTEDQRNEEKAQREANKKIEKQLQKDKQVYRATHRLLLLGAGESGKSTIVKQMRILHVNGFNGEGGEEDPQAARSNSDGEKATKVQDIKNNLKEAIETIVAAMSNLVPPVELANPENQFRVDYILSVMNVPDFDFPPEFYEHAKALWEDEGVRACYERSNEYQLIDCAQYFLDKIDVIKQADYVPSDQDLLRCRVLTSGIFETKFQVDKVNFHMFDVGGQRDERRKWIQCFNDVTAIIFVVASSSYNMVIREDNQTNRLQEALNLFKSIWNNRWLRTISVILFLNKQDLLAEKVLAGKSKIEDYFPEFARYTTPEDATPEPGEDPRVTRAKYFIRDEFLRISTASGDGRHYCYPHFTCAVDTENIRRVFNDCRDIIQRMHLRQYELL

[3] = listed as 4,4′,4″,4′″-[carbonyl-bis[imino-5,1,3-benzenetriyl bis-{carbonylimino}]]tetrakis

O=C(Nc1cc(C(=O)Nc2ccc(S(=O)(=O)O)cc2S(=O)(=O)O)cc(C(=O)Nc2ccc(S(=O)(=O)O)cc2S(=O)(=O)O)c1)Nc1cc(C(=O)Nc2ccc(S(=O)(=O)O)cc2S(=O)(=O)O)cc(C(=O)Nc2ccc(S(=O)(=O)O)cc2S(=O)(=O)O)c1 [NF449, 4,4′,4″,4′″-[carbonyl-bis[imino-5,1,3-benzenetriylbis-{carbonylimino}]]tetrakis-{benzene-1,3-disulfonic acid}]
FGF2-mediated inhibition of [35S]sulfate incorporation (loss of sulfated proteoglycans) [1]: completely rescued
FGF2-mediated inhibition of [35S]sulfate incorporation (loss of sulfated proteoglycans) [1, 3]: reversed
FGF2-mediated Thr202/Tyr204 phosphorylation of ERK [2]: almost completely blocked
FGF2-mediated Thr202/Tyr204 phosphorylation of ERK [2, 3]: inhibited
concentration needed to inhibit GSA (GSA subunit): 0.14 µM
